Measurements taken from patent US9302012B2, “Anti-bacterial siderophore-aminopenicillin conjugates” (University of Notre Dame Du Lac, priority 2012, dated 2016).
Converted amounts (≈) assume the structure as drawn. Like-named read-outs stand apart in the source and are kept apart here.

Key:
[1] = system: P. aeruginosa PAO1; assay: Agar diffusion antibacterial susceptibility assay; assay type: cell-based; settings: Pseudomonas aeruginosa, PAO1, 24 h, 37° C., read-out: Diameter of growth inhibition zones; for zone of inhibition at 200 µM: 50 μL of 0.2 mM solution; for zone of inhibition at 100 µM: 50 μL of 0.1 mM solution
Description: (§1) All liquids and media were sterilized by autoclaving (121° C., 15 min) before use. All aqueous solutions and media were prepared using distilled, deionized, and filtered water (Millipore Milli-Q Advantage A10 Water Purification System). Luria broth (LB) was purchased from VWR. Mueller-Hinton No. 2 broth (MHII broth; cation adjusted) was purchased from Sigma-Aldrich (St. Louis, Mo.). Iron-deficient (—Fe) MHII broth was prepared by adding 0.8 mL of a 1 mg/mL sterile aq. solution of 2,2′-bipyridine to 49.2 mL of MHII broth. Iron-rich (+Fe) MHII broth was prepared by adding 0.8 mL of a 1 mg/mL sterile aq. solution of FeCl3 to 49.2 mL of MHII broth. Mueller-Hinton No. 2 agar (MHII agar; HiMedia Laboratories) was purchased from VWR. Iron-deficient (−Fe) MHII agar was prepared by adding 0.5 mL of a 1 mg/mL sterile aq. solution of 2,2′-bipyridine to 34 mL of melted MHII agar with gentle mixing. Iron-rich (+Fe) MHII agar was prepared by adding 0.5 mL of a 1 mg/mL sterile aq. solution of FeCl3 to 34 mL of melted MHII agar with gentle mixing. See also Wencewicz, T. A. Dissertation, University of Notre Dame, Notre Dame, Ind., 2011, for relevant techniques.
(§2) Antibacterial Susceptibility Testing by the Agar Diffusion Assay.
(§3) Antibacterial activity of the compounds was determined by a modified Kirby-Bauer agar diffusion assay. Overnight cultures of test organisms were grown in LB broth for 18-24 h and standard suspensions of […] were prepared in saline solution (0.9% NaCl) according to a 0.5 BaSO4 McFarland Standard. This standardized suspension (0.1 mL) was added to 34 mL of sterile, melted agar (−Fe or +Fe) tempered to 47-50° C. After gentle mixing, the inoculated agar media was poured into a sterile plastic petri dish (145 mm×20 mm) and allowed to solidify near a flame with the lid ajar for about 30 min. Wells of 9.0 mm diameter were cut from the petri dish agar and filled with exactly 50 μL of the test sample solution. The petri dish was incubated at 37° C. for 18-24 h and the inhibition zone diameters were measured (mm) with an electronic caliper after 24 h.

[2] = system: P. aeruginosa KW799/61; assay: microbe, parasite or virus in culture; assay type: cell-based, Pseudomonas aeruginosa; settings: for Diameter of growth inhibition zones: P. aeruginosa KW799/61
Description: as §1, with “All” for “All liquids and media were sterilized by autoclaving (121° C., 15 min) before use. All”, “mixing.” for “mixing. See also Wencewicz, T. A. Dissertation, University of Notre Dame, Notre Dame, Ind., 2011, for relevant techniques.”
as §2
as §3, with “After gentle mixing, the inoculated agar media was poured into a sterile plastic petri dish (145 mm×20 mm) and allowed to solidify near a flame with the lid ajar for about 30 min.” left out

[3] = system: P. aeruginosa Pa6; assay: MIC90 by broth microdilution assay; assay type: cell-based, Pseudomonas aeruginosa; settings: for MIC90: P. aeruginosa Pa6, 37° C., 20 h; for activity against Pa6 (MIC assay, in words): exception among wild type strains
Description: ^aMIC90 values (μM) were determined using the broth microdilution method in Mueller-Hinton broth No. 2 (MHII) with visual end point analysis according to the CLSI guidelines (Methods for Dilution Antimicrobial Susceptibility Tests for Bacteria that Grow Aerobically, 8th ed. (Villanova, Pa., USA), Clinical and Laboratory Standards Institute (CLSI), 2009, approved standard document M07-A7). ^bEach compound was tested in triplicate.
as §1
Determination of MIC90 Values by the Broth Microdilution Assay.
Antibacterial activity of the compounds was determined by measuring their minimum inhibitory concentrations (MIC90's) using the broth microdilution method according to the Clinical and Laboratory Standards Institute (CLSI, formerly the NCCLS) guidelines. Each well of a 96-well microtiter plate was filled with 50 μL of sterile broth media (−Fe or +Fe). Each test compound was dissolved in DMSO making a 20 mM solution, and then diluted with sterile broth media (−Fe or +Fe) to 400 or 800 μM. Exactly 50 μL of the compound solution was added to the first well of the microtiter plate and 2-fold serial dilutions were made down each row of the plate. Exactly 50 μL of bacterial inoculum (5×10^5 CFU/mL in broth media) was then added to each well giving a total volume of 100 μL/well. The plate was incubated at 37° C. for 20 h and then each well was examined for bacterial growth. The MIC90 was recorded as the lowest compound concentration (μM) required to inhibit 90% of bacterial growth as judged by turbidity of the culture media relative to a row of wells filled with a DMSO standard.

[4] = system: various wild type strains of P. aeruginosa; assay: MIC by broth microdilution (text summary over strains); assay type: cell-based; settings: Pseudomonas aeruginosa, iron-deficient medium, read-out: MICs against various wild type strains of P. aeruginosa
Description: as §1

[5] = system: P. aeruginosa Pa4; assay: Agar diffusion antibacterial susceptibility assay; assay type: cell-based, Pseudomonas aeruginosa; design: key to Diameter of growth inhibition zones: partially clear inhibition zone/colonies in the inhibition zone; P: unclear inhibition zone/many colonies in the inhibition zone; indicates only a hint of growth inhibition detectable; settings: 37° C.; for zone of inhibition at 200 µM / zone of inhibition at 100 µM: Pseudomonas aeruginosa, PA4, 24 h, read-out: Diameter of growth inhibition zones; for zone of inhibition at 200 µM / Diameter of growth inhibition zones: 50 μL of 0.2 mM solution; for Diameter of growth inhibition zones: 24 hours; for zone of inhibition at 100 µM: 50 μL of 0.1 mM solution
Description: as §1, §2, §3

[6] = Pseudomonas aeruginosa, KW799/61, 24 h, read-out: Diameter of growth inhibition zones, P. aeruginosa KW799/61, +Fe agar, 50 μL of 0.2 mM solution, 37° C., 24 hours
[7] = Pseudomonas aeruginosa, KW799/61, 24 h, read-out: Diameter of growth inhibition zones, P. aeruginosa KW799/61, −Fe agar, 50 μL of 0.2 mM solution, 37° C., 24 hours
[8] = −Fe (iron-deficient) MHII broth
[9] = Pseudomonas aeruginosa, +Fe (iron-rich) MHII broth

## CC1(C)S[C@@H]2[C@H](NC(=O)[C@H](N)c3ccc(O)cc3)C(=O)N2[C@H]1C(=O)O [Amoxicillin, reference compound]
[1]; +Fe agar
  zone of inhibition at 200 µM: 0 mm
[1]; −Fe agar
  zone of inhibition at 200 µM: 0 mm
[2]; P. aeruginosa permeable mutant K799/61
  activity against permeable mutant (large zones of inhibition, in words): highly active
[2]; [6]
  zone of inhibition at 200 µM: 42 mm
[2]; [7]
  zone of inhibition at 200 µM: 39 mm
[3]; [8]
  MIC90: >200 µM
[3]; [9]
  MIC90: > 200 µM
[4]
  MIC: > 100 µM
[5]; +Fe agar
  zone of inhibition at 200 µM: 0 mm
[5]; −Fe agar
  Diameter of growth inhibition zones: h

## CC1(C)S[C@@H]2[C@H](NC(=O)[C@H](N)c3ccccc3)C(=O)N2[C@H]1C(=O)O [Ampicillin, reference compound]
[1]; +Fe agar
  zone of inhibition at 200 µM: 0 mm
[1]; −Fe agar
  zone of inhibition at 200 µM: 0 mm
[2]; [6]
  zone of inhibition at 200 µM: 40 mm
[2]; [7]
  zone of inhibition at 200 µM: 40 mm
[3]; [8]
  MIC90: >200 µM
[3]; [9]
  MIC90: > 200 µM
[4]
  MIC: > 100 µM
[5]; +Fe agar
  zone of inhibition at 200 µM: 0 mm
[5]; −Fe agar
  Diameter of growth inhibition zones: h

## CC(=O)Oc1cccc(C(=O)NCCCC(CCCNC(=O)c2cccc(OC(C)=O)c2OC(C)=O)(CCCNC(=O)c2cccc(OC(C)=O)c2OC(C)=O)NC(=O)CCC(=O)NC(C(=O)NC2C(=O)N3C2SC(C)(C)C3C(=O)O)c2ccccc2)c1OC(C)=O (stereo not drawn) [Compound 10]
[1]; +Fe agar
  zone of inhibition at 100 µM: 0 mm
[1]; −Fe agar
  zone of inhibition at 100 µM: 16 mm
[2]; +Fe agar, 50 μL of 0.1 mM solution, 37° C., 24 hours
  Diameter of growth inhibition zones: 13P
[2]; Pseudomonas aeruginosa, KW799/61, 24 h, read-out: Diameter of growth inhibition zones, P. aeruginosa KW799/61, −Fe agar, 50 μL of 0.1 mM solution, 37° C., 24 hours
  zone of inhibition at 100 µM: 21 mm
[3]; [8]
  MIC90: >200 µM
[3]; [9]
  MIC90: > 200 µM
[3]
  activity against Pa6 (MIC assay, in words): inactive
[4]
  MIC: 0.05 to 0.39 µM (≈ 0.0647 to 0.505 µg/mL)
[5]; +Fe agar
  zone of inhibition at 100 µM: 0 mm
[5]; −Fe agar
  zone of inhibition at 100 µM: 18 mm

## CC(=O)Oc1cccc(C(=O)NCCCC(CCCNC(=O)c2cccc(OC(C)=O)c2OC(C)=O)(CCCNC(=O)c2cccc(OC(C)=O)c2OC(C)=O)NC(=O)CCC(=O)NC(C(=O)NC2C(=O)N3C2SC(C)(C)C3C(=O)O)c2ccc(O)cc2)c1OC(C)=O (stereo not drawn) [Compound 11]
[1]; +Fe agar
  zone of inhibition at 200 µM: 0 mm
[1]; −Fe agar
  zone of inhibition at 200 µM: 19 mm
[2]; +Fe agar, 50 μL of 0.2 mM solution, 37° C., 24 hours
  Diameter of growth inhibition zones: 13P
[2]; [7]
  zone of inhibition at 200 µM: 26 mm
[3]; [8]
  MIC90: >200 µM
[3]; [9]
  MIC90: > 200 µM
[3]
  activity against Pa6 (MIC assay, in words): inactive
[4]
  MIC: 0.05 to 0.39 µM (≈ 0.0655 to 0.511 µg/mL)
[5]; +Fe agar
  zone of inhibition at 200 µM: 0 mm
[5]; −Fe agar
  zone of inhibition at 200 µM: 20 mm
